Measured values: PMC11999280, “Design and screening of novel endosomal escape compounds that enhance functional delivery of oligonucleotides in vitro” (Molecular Therapy. Nucleic Acids, 2025)

How the values were obtained:
Assay type in all cases: cell-based
[1] = tested on: HeLa_Luc705 cells (pLuc/705 splice-switching reporter); experiment: Functional 705-SSO delivery, luciferase splice-switching assay; settings: HeLa-Luc705 + 2 µM SSO, mean from >3 independent experiments
Text: Therefore, next, we functionally screened the SSO delivery in the HeLa_Luc705 reporter cell line. HeLa_Luc705 carries a pLuc/705 splice-switching reporter luciferase gene interrupted by a mutated β-globin intron, which creates a preferentially used cryptic 5′ splice site leading to aberrant splicing. Functional SSO delivery masks the cryptic site, redirecting the splicing machinery to the right splicing site, allowing the measurement of luciferase expression (Figure S1).[25]^,[26]^,[27]^,[28] We used SSO transfection with LF2000 as transfection control and the previously published endosomal escape enhancer CMP05 (here, EEE2) as positive control.[15]
For the assessment of functional SSO therapeutics, a HeLa_Luc705 cell line was grown in DMEM media supplemented with 10% fetal bovine serum (FBS). For most treatments, 10,000 cells/well were seeded in a 96-well plate, 24 h pre-incubated with 1- to 2-μM oligonucleotide, and then treated at the described EEE concentration. At 24 h post-treatment, cells were PBS rinsed and collected for further analysis (treatments and incubation times changed accordingly to the experiment design). Luciferase readout was performed as previously described,[15] using a GloMax 96-well plate microplate luminometer (Promega) immediately after adding 30 μL auto-injected luciferin substrate (Promega Firefly Luciferase Assay System; Thermo Scientific, catalog no. 16174) in a white-walled 96-well plate containing 30 μL 0.1% Triton X-100 (Sigma-Aldrich) cell lysed. Photon exposure time and delay were set to 10 and 2 s after injection. LF2000 was used as the transfection reagent control (Thermo Scientific, catalog no. 11668019). For EEE experiments using 1 or 2 μM SSOs, the control was prepared using lipofection with 100–200 nM SSO; this is to avoid complex induced cell toxicity.
705-SSO was purchased from and synthesized by Integrated DNA Technologies. The 705-SSO sequence was previously published, containing 2′-O-methylated bases and only phosphorothioate-saturated backbone linkages were included.[15] The 705-SSO was high-performance liquid chromatography purified, shipped, and stored in IDTE buffer (10 mM Tris, 0.1 mM EDTA).

[2] = tested on: mCherry-GAL9 expressing 16HBE cells; experiment: GAL9 recruitment assay, 16HBE; settings: calculated mean from >3 independent exp.
Experimental: (§1) Experiments assessing GAL9 localization as an indicator for endosomal remodeling were performed as previously described[15] using 8× stablemCherry-GAL9 expressing cell lines, SHSY5Y, U2OS, 16HBE, NCI-H358, HuH7, HepG2, HEK293, and HeLa. For mCherry-GAL9 recruitment, 3,000 or 6,500 cells/well (depending upon cell line) were seeded into 384-well CellCarrier Ultra plates 24 h prior to treatment (PerkinElmer, catalog no. 6007558). An Echo 655T acoustic dispenser (Labcyte) was used for EEE dose-response preparation by transferring to the cell plate. At assay endpoints, cells were PBS washed, 4% paraformaldehyde fixed at room temperature […] (VWR, catalog no. 9713.1000), and nuclei stained with PBS +1 μg/mL Hoechst 33342 (Thermo Fisher Scientific, catalog no. H21492).
(§2) Imaging was performed using a spinning-disk confocal microscope (Yokogawa: CV8000) with a ×20w objective (numerical aperture 1.0). Cells and mCherry-GAL9 structure identification and quantification were done using Columbus image-analysis software (PerkinElmer version 2.9.0). Data processing was done using Spotfire (Tibco version 11.4) and Prism (GraphPad version 9.1.0). Image panels were assembled using the FigureJ plugin for FIJI.[43] All mCherry-GAL9 experiments were performed three times (N = 3) with duplicated wells per treatment (n = 2).

[3] = tested on: mCherry-GAL9 expressing HEK293 cells; experiment: GAL9 recruitment assay, HEK293; settings: calculated mean from >3 independent exp.
Experimental: as §1, §2

[4] = tested on: mCherry-GAL9 expressing U2OS cells; experiment: GAL9 recruitment assay, U2OS; settings: calculated mean from >3 independent exp.
Experimental: as §1, §2

[5] = tested on: mCherry-GAL9 expressing HeLa cells; experiment: GAL9 recruitment assay, HeLa; settings: calculated mean from >3 independent exp.
Experimental: as §1, §2

[6] = tested on: mCherry-GAL9 expressing NCI-H358 cells; experiment: GAL9 recruitment assay, NCI-H358; settings: calculated mean from >3 independent exp.
Experimental: as §1, §2

[7] = tested on: mCherry-GAL9 expressing SHSY5Y cells; experiment: GAL9 recruitment assay, SHSY5Y; settings: calculated mean from >3 independent exp.
Experimental: as §1, §2

[8] = tested on: mCherry-GAL9 expressing HepG2 cells; experiment: GAL9 recruitment assay, HepG2; settings: calculated mean from >3 independent exp.
Experimental: as §1, §2

[9] = tested on: mCherry-GAL9 expressing HuH7 cells; experiment: GAL9 recruitment assay, HuH7; settings: calculated mean from >3 independent exp.
Experimental: as §1, §2

Structure (SMILES): COc1nn(C2CCN(CCCO)CC2)cc1Nc1ncc(F)c(-n2ccc3c(C#N)cccc32)n1 [EEE12]
- Luciferase expression compared to reference ([1]; EEE 2.5 - 3 µM): 1.720
- Gal9 response compared to reference ([2]; EEE 0.31 µM): 0.014
- Gal9 response compared to reference ([2]; EEE 0.62 µM): 0.063
- Gal9 response compared to reference ([2]; EEE 1.25 µM): 0.180
- Gal9 response compared to reference ([2]; EEE 2.5 µM): 0.658
- Gal9 response compared to reference ([2]; EEE 5 µM): 0.681
- Gal9 response compared to reference ([2]; EEE 10 µM): 0.421
- Gal9 response compared to reference ([3]; EEE 0.31 µM): 0.023
- Gal9 response compared to reference ([3]; EEE 0.62 µM): 0.122
- Gal9 response compared to reference ([3]; EEE 1.25 µM): 0.432
- Gal9 response compared to reference ([3]; EEE 2.5 µM): 0.716
- Gal9 response compared to reference ([3]; EEE 5 µM): 0.604
- Gal9 response compared to reference ([3]; EEE 10 µM): 0.273
- Gal9 response compared to reference ([4]; EEE 0.31 µM): 0.013
- Gal9 response compared to reference ([4]; EEE 0.62 µM): 0.017
- Gal9 response compared to reference ([4]; EEE 1.25 µM): 0.057
- Gal9 response compared to reference ([4]; EEE 2.5 µM): 0.299
- Gal9 response compared to reference ([4]; EEE 5 µM): 0.511
- Gal9 response compared to reference ([4]; EEE 10 µM): 0.588
- Gal9 response compared to reference ([5]; EEE 0.31 µM): 0.005
- Gal9 response compared to reference ([5]; EEE 0.62 µM): 0.015
- Gal9 response compared to reference ([5]; EEE 1.25 µM): 0.195
- Gal9 response compared to reference ([5]; EEE 2.5 µM): 0.550
- Gal9 response compared to reference ([5]; EEE 5 µM): 0.394
- Gal9 response compared to reference ([5]; EEE 10 µM): 0.118
- Gal9 response compared to reference ([6]; EEE 0.31 µM): 0.018
- Gal9 response compared to reference ([6]; EEE 0.62 µM): 0.032
- Gal9 response compared to reference ([6]; EEE 1.25 µM): 0.128
- Gal9 response compared to reference ([6]; EEE 2.5 µM): 0.574
- Gal9 response compared to reference ([6]; EEE 5 µM): 0.607
- Gal9 response compared to reference ([6]; EEE 10 µM): 0.422
- Gal9 response compared to reference ([7]; EEE 0.31 µM): 0.014
- Gal9 response compared to reference ([7]; EEE 0.62 µM): 0.271
- Gal9 response compared to reference ([7]; EEE 1.25 µM): 0.742
- Gal9 response compared to reference ([7]; EEE 2.5 µM): 0.706
- Gal9 response compared to reference ([7]; EEE 5 µM): 0.575
- Gal9 response compared to reference ([7]; EEE 10 µM): 0.177
- Gal9 response compared to reference ([8]; EEE 0.31 µM): 0.008
- Gal9 response compared to reference ([8]; EEE 0.62 µM): 0.010
- Gal9 response compared to reference ([8]; EEE 1.25 µM): 0.038
- Gal9 response compared to reference ([8]; EEE 2.5 µM): 0.146
- Gal9 response compared to reference ([8]; EEE 5 µM): 0.517
- Gal9 response compared to reference ([8]; EEE 10 µM): 0.574
- Gal9 response compared to reference ([9]; EEE 0.31 µM): 0.014
- Gal9 response compared to reference ([9]; EEE 0.62 µM): 0.031
- Gal9 response compared to reference ([9]; EEE 1.25 µM): 0.143
- Gal9 response compared to reference ([9]; EEE 2.5 µM): 0.357
- Gal9 response compared to reference ([9]; EEE 5 µM): 0.232
- Gal9 response compared to reference ([9]; EEE 10 µM): 0.103

Structure (SMILES): CCOc1nn(C2CCN(C)CC2)cc1Nc1ncc(F)c(-n2ccc3c(C#N)cccc32)n1 [EEE13]
- Luciferase expression compared to reference ([1]; EEE 5 µM): 1.314
- Luciferase expression compared to reference ([1]; EEE 1-1.25 µM): 0.743
- Luciferase expression compared to reference ([1]; EEE 2.5 - 3 µM): 0.692
- Gal9 response compared to reference ([2]; EEE 0.31 µM): 0.009
- Gal9 response compared to reference ([2]; EEE 0.62 µM): 0.011
- Gal9 response compared to reference ([2]; EEE 1.25 µM): 0.010
- Gal9 response compared to reference ([2]; EEE 2.5 µM): 0.013
- Gal9 response compared to reference ([2]; EEE 5 µM): 0.044
- Gal9 response compared to reference ([2]; EEE 10 µM): 0.306
- Gal9 response compared to reference ([3]; EEE 0.31 µM): 0.018
- Gal9 response compared to reference ([3]; EEE 0.62 µM): 0.024
- Gal9 response compared to reference ([3]; EEE 1.25 µM): 0.021
- Gal9 response compared to reference ([3]; EEE 2.5 µM): 0.020
- Gal9 response compared to reference ([3]; EEE 5 µM): 0.032
- Gal9 response compared to reference ([3]; EEE 10 µM): 0.097
- Gal9 response compared to reference ([4]; EEE 0.31 µM): 0.014
- Gal9 response compared to reference ([4]; EEE 0.62 µM): 0.011
- Gal9 response compared to reference ([4]; EEE 1.25 µM): 0.010
- Gal9 response compared to reference ([4]; EEE 2.5 µM): 0.014
- Gal9 response compared to reference ([4]; EEE 5 µM): 0.023
- Gal9 response compared to reference ([4]; EEE 10 µM): 0.072
- Gal9 response compared to reference ([5]; EEE 0.31 µM): 0.005
- Gal9 response compared to reference ([5]; EEE 0.62 µM): 0.004
- Gal9 response compared to reference ([5]; EEE 1.25 µM): 0.004
- Gal9 response compared to reference ([5]; EEE 2.5 µM): 0.003
- Gal9 response compared to reference ([5]; EEE 5 µM): 0.007
- Gal9 response compared to reference ([5]; EEE 10 µM): 0.023
- Gal9 response compared to reference ([6]; EEE 0.31 µM): 0.019
- Gal9 response compared to reference ([6]; EEE 0.62 µM): 0.018
- Gal9 response compared to reference ([6]; EEE 1.25 µM): 0.013
- Gal9 response compared to reference ([6]; EEE 2.5 µM): 0.014
- Gal9 response compared to reference ([6]; EEE 5 µM): 0.015
- Gal9 response compared to reference ([6]; EEE 10 µM): 0.038
- Gal9 response compared to reference ([7]; EEE 0.31 µM): 0.014
- Gal9 response compared to reference ([7]; EEE 0.62 µM): 0.015
- Gal9 response compared to reference ([7]; EEE 1.25 µM): 0.012
- Gal9 response compared to reference ([7]; EEE 2.5 µM): 0.013
- Gal9 response compared to reference ([7]; EEE 5 µM): 0.044
- Gal9 response compared to reference ([7]; EEE 10 µM): 0.421
- Gal9 response compared to reference ([8]; EEE 0.31 µM): 0.008
- Gal9 response compared to reference ([8]; EEE 0.62 µM): 0.007
- Gal9 response compared to reference ([8]; EEE 1.25 µM): 0.008
- Gal9 response compared to reference ([8]; EEE 2.5 µM): 0.009
- Gal9 response compared to reference ([8]; EEE 5 µM): 0.006
- Gal9 response compared to reference ([8]; EEE 10 µM): 0.007
- Gal9 response compared to reference ([9]; EEE 0.31 µM): 0.010
- Gal9 response compared to reference ([9]; EEE 0.62 µM): 0.007
- Gal9 response compared to reference ([9]; EEE 1.25 µM): 0.011
- Gal9 response compared to reference ([9]; EEE 2.5 µM): 0.015
- Gal9 response compared to reference ([9]; EEE 5 µM): 0.012
- Gal9 response compared to reference ([9]; EEE 10 µM): 0.046
